The nature of series [1]: (§1) Antiarrhythmic activity in patient-derived hiPSC-CMs carrying LQT3 mutation assessed as cessation dose for cell beating. Format: functional, Homo sapiens, iPSC-CM.
The nature of series [2]: Antiarrhythmic activity in patient-derived hiPSC-CMs carrying LQT3 mutation assessed as shortening of action potential duration. Format: functional, Homo sapiens. The note with it: ipsc-cm.
Series [3] can be described thus: Antiarrhythmic activity in patient-derived hiPSC-CMs carrying LQT3 mutation assessed as fold shortening of action potential duration relative to control. The series is classed as functional, Homo sapiens, iPSC-CM.
The nature of series [4]: Antiarrhythmic activity in patient-derived hiPSC-CMs carrying LQT3 mutation assessed as shortening dose of action potential. Format: functional, Homo sapiens, iPSC-CM.
A short description of series [5]: Antiarrhythmic activity in hiPSC-CMs assessed as cessation dose of cell beating. The note with it: human, ipsc-cm.
Series [6] is described as follows: Antiarrhythmic activity in hiPSC-CMs assessed as dose for induction of early after depolarizations. To be noted: human, ipsc-cm.
Series [7] is described as follows: Antiarrhythmic activity in hiPSC-CMs assessed as prolongation of action potential. The arrangement: species or system Homo sapiens, iPSC-CM.
Series [8] can be described thus: Antiarrhythmic activity in hiPSC-CMs assessed as fold prolongation of action potential relative to control. The note with it: human, ipsc-cm.
The next series relates to iPSC-CM. Described as §1. Format: functional. To be noted: Homo sapiens.
[9] abbreviates: Homo sapiens, iPSC-CM, read-out: EC50.

Calls of active or inactive are those of the source. The calls are words filed in the database; no cut-off is given here.

On to `CC(N)COc1cccc(C(F)(F)F)c1.Cl` (centres undefined), for which the Activity was 200 µM in series [1], 133 µM in series [4], 200 µM in [5] and “Not Active” in series [6]. Also, the 50% effective concentration (EC50) (as a rule, the concentration giving half of the maximal effect) is 31.3 µM in [2] (read-out: EC50) and “Not Active” in series [7] (ipsc-cm). For the same compound, in series [3], the “fold change (FC)” value amounted to 1.661.
For the compound `Cc1cccc(C)c1OCC(N)c1ccc2ccccc2c1.Cl` (centres undefined), the Activity was 133 µM in series [1], 22 µM in [4], “Not Active” in series [5] and “Not Active” in [6]. For the same compound, the EC50 is 4.73 µM in series [2] (read-out: EC50) and “Not Active” in series [7] (ipsc-cm). Besides, the “fold change (FC)” value in series [3] came to 1.309.
In the case of `Cc1cc(C)cc(OCC(NCCO)c2ccccc2)c1.Cl` (centres undefined), the Activity was 22 µM in series [1]; 22 µM in series [4]; 66 µM in series [5]; “Not Active” in series [6]; “Not Active” in series [8]. Also, the EC50 result in [2] was “Not Active”. In addition, the “fold change (FC)” value in [3] was 1.5.
On to `CCCNC(C)COc1c(C)cccc1C.Cl` (centres undefined), for which the Activity in series [1] is 200 µM; in [4], 2.5 µM; in [5], 200 µM; in series [6] it was 66 µM. Further, the EC50 entry was “Not Active” in series [2] and 10.4 µM in series [7] (setting [9]). In addition, the “fold change (FC)” value in [3] is 1.199.
As to `CCCCNC(COc1cccc(C)c1C)c1ccccc1.Cl` (centres undefined), the Activity in [1] is 200 µM; in series [4], 133 µM; in [5], 133 µM; in series [6], “Not Active”; in series [8], “Not Active”. Further, in series [2] (read-out: EC50), the EC50 amounted to 20.2 µM. The “fold change (FC)” value in series [3] was 1.423.
Take `COc1ccccc1OCC(N)c1ccccc1.Cl` (centres undefined): the Activity is 133 µM in series [1], 0.8 µM in series [4], 22 µM in [5] and 7.4 µM in series [6]. Moreover, the EC50 in [2] (read-out: EC50) is under 0.8 µM; in series [7] (setting [9]) it was 32.2 µM. The “fold change (FC)” value in series [3] turned out to be 1.482.
On to `Cc1cccc(C)c1OCC(C)NCc1ccccc1.Cl` (centres undefined), for which the Activity is 133 µM in [1], 22 µM in series [4], 200 µM in [5] and “Not Active” in series [6]. The figures for the EC50 entry in [2] and in series [7] (setting [9]) were “Not Active” and 5.7 µM, respectively. Further, the “fold change (FC)” value in [3] is 1.264.
`Cl.NC(COc1ccc2ccccc2c1)c1ccccc1` (centres undefined): the Activity in series [1] is 133 µM; in [4], 2.5 µM; in series [5], “Not Active”; in series [6], “Not Active”. Also, the figures for the EC50 in [2] (read-out: EC50) and in series [7] (ipsc-cm) were 8.7 µM and “Not Active”, respectively. For the same compound, in series [3], the “fold change (FC)” value is given as 1.459.
For the compound `Cc1ccc(OCC(N)C2CC2)c(C)c1.Cl` (centres undefined), the Activity came out at 200 µM in series [1], 66 µM in series [4], 200 µM in series [5] and 66 µM in series [6]. Moreover, the EC50 in series [2] (read-out: EC50) came out at 1.36 µM. Further, the “fold change (FC)” value is on record as 1.119 in series [3] and 2.12 in series [8].
As for `Cc1ccc(OCC(N)c2ccccc2)c(C)c1.Cl` (centres undefined), the Activity is 66 µM in series [1], 7.4 µM in series [4], 66 µM in [5] and “Not Active” in series [6]. Moreover, the EC50 in series [2] (read-out: EC50) was 0.5 µM; in series [7] (ipsc-cm) it was “Not Active”. Besides, the “fold change (FC)” value in series [3] worked out at 1.192.
On to `CCCc1ccccc1OCC(N)c1ccccc1.Cl` (centres undefined), for which the Activity is 22 µM in series [1], 2.5 µM in series [4], 22 µM in [5] and “Not Active” in [6]. In addition, the EC50 in series [2] (read-out: EC50) was under 0.8 µM; in series [7] (ipsc-cm), “Not Active”. The “fold change (FC)” value in [3] was determined as 1.321.
As to `Cl.NC(COc1ccccc1OCC(F)(F)F)c1ccccc1` (centres undefined), the Activity in series [1] was 66 µM; in series [4], 22 µM; in series [5], 66 µM; in series [6] it was “Not Active”. The EC50 in [2] (read-out: EC50) was 0.9 µM; in series [7] (ipsc-cm), “Not Active”. Further, the “fold change (FC)” value in [3] was found to be 1.409.
In the case of `CNC(COc1cccc(C)c1C)c1ccccc1.Cl` (centres undefined), the Activity is 66 µM in series [1]; 22 µM in series [4]; 133 µM in series [5]; “Not Active” in [6]; “Not Active” in [8]. Further, in series [2], the EC50 result is reported as “Not Active”. Besides, the “fold change (FC)” value in series [3] worked out at 1.29.
For `Cc1cccc(OCC(N)c2ccccc2)c1.Cl` (centres undefined), the Activity in [1] is 66 µM; in series [4], 22 µM; in series [5], 133 µM; in [6], “Not Active”. Further, the values for the EC50 in series [2] (read-out: EC50) and in [7] (ipsc-cm) were under 0.8 µM and “Not Active”, respectively. In addition, the “fold change (FC)” value in series [3] is given as 1.41.
Consider `Cl.NC(COc1cccc2ccccc12)c1ccccc1` (centres undefined), for which the Activity in [1] is 66 µM; in series [4] it was 66 µM; in series [5] it was “Not Active”; in [6] it was “Not Active”. Further, the EC50 was 0.82 µM in series [2] (read-out: EC50) and “Not Active” in series [7] (ipsc-cm). Moreover, the “fold change (FC)” value in series [3] was 1.316.
With `Cc1ccc(OCC(N)c2ccccc2)cc1C.Cl` (centres undefined), the Activity in series [1] was 66 µM; in series [4] it was 22 µM; in series [5], 66 µM; in series [6] it was “Not Active”. For the same compound, the EC50 result in series [2] and in series [7] (ipsc-cm) was “Not Active” each time. Besides, the “fold change (FC)” value in series [3] is recorded as 1.37.
Take `Cl.NC(COc1cccc(C(F)(F)F)c1)c1ccccc1` (centres undefined): the Activity in [1] was 66 µM; in [4] it was 22 µM; in [5] it was 66 µM; in series [6] it was “Not Active”. The EC50 in series [2] (read-out: EC50) was 4.1 µM; in series [7] (ipsc-cm), “Not Active”. The “fold change (FC)” value in [3] was 1.539.
`CC(=O)NC(COc1c(C)cccc1C)c1ccccc1` (centres undefined): the Activity was 66 µM in series [1]; 22 µM in series [4]; “Not Active” in [5]; “Not Active” in [6]; “Not Active” in series [8]. In addition, in [2] (read-out: EC50), the EC50 was 0.8 µM. The “fold change (FC)” value in [3] turned out to be 1.62.
On to `CCc1ccccc1OCC(N)c1ccccc1.Cl` (centres undefined), for which the Activity in series [1] is 22 µM; in [4] it was 7.4 µM; in series [5], 66 µM; in [6], “Not Active”. The EC50 in series [2] (read-out: EC50) was under 0.8 µM; in series [7] (ipsc-cm), “Not Active”. Moreover, in [3], the “fold change (FC)” value is 1.979.
For the compound `COCCNC(C)COc1c(C)cccc1C.Cl` (centres undefined), the result in the series with iPSC-CM was inactive. Besides, the EC50 is 2.3 µM in series [2] (read-out: EC50) and 32 µM in series [7] (setting [9]). The Activity in series [4] is 7.4 µM; in series [5], “Not Active”; in series [6], 66 µM.
For the compound `CCCc1ccccc1OCC(C)N.Cl` (centres undefined), the Activity in [1] was 133 µM; in series [4] it was 7.4 µM; in series [5] it was 200 µM; in [6] it was “Not Active”. For the same compound, the EC50 is 0.9 µM in [2] (read-out: EC50) and 7.8 µM in [7] (setting [9]). Moreover, the “fold change (FC)” value in series [3] came out at 1.192.
For the compound `Cc1cccc(C)c1OCC(N)C1CCCCC1.Cl` (centres undefined), the Activity in series [1] was 66 µM; in series [4] it was 0.8 µM; in series [5] it was 66 µM; in series [6] it was “Not Active”. In addition, the EC50 in [2] (read-out: EC50) is under 0.8 µM; in [7] (ipsc-cm) it was “Not Active”. The “fold change (FC)” value in series [3] is listed as 1.136.
`Cl.NC(COc1ccccc1OC(F)(F)F)c1ccccc1` (centres undefined): the Activity in series [1] was 66 µM; in series [4] it was 22 µM; in [5], 66 µM; in series [6] it was “Not Active”. Moreover, the EC50 in series [2] (read-out: EC50) is 2.6 µM; in series [7] (ipsc-cm) it was “Not Active”. Also, the “fold change (FC)” value in [3] is recorded as 1.513.
As for `COCCNC(COc1cc(C(F)(F)F)cc(C(F)(F)F)c1)c1ccccc1.Cl` (centres undefined), the Activity is 66 µM in series [1]; 66 µM in series [4]; “Not Active” in series [5]; “Not Active” in series [6]; “Not Active” in series [8]. In addition, in [2] (read-out: EC50), the EC50 came to 6.59 µM. For the same compound, in series [3], the “fold change (FC)” value is 1.636.
Take `CC(N)COc1cc(C(F)(F)F)cc(C(F)(F)F)c1.Cl` (centres undefined): the Activity is 66 µM in [1], 7.4 µM in series [4], 133 µM in series [5] and “Not Active” in [6]. Moreover, the EC50 is 0.9 µM in series [2] (read-out: EC50) and “Not Active” in [7] (ipsc-cm). Also, the “fold change (FC)” value in [3] was found to be 1.2.
As for `Cc1cccc(C)c1OCC(N)c1ccccc1.Cl` (centres undefined), the “fold change (FC)” value in series [8] stood at 4.
Take `Cc1ccc(OCC(N)C2CC2)cc1C.Cl` (centres undefined): the Activity is 66 µM in series [1]; 22 µM in series [4]; 66 µM in series [5]; “Not Active” in series [6]; “Not Active” in series [8]. The EC50 entry in [2] is “Not Active”. Further, the “fold change (FC)” value in [3] is 1.18.
On to `CCCCNC(C)COc1c(C)cccc1C.Cl` (centres undefined), for which the Activity in series [1] is 66 µM; in [4] it was 2.5 µM; in [5] it was 133 µM; in series [6], 66 µM. The values for the EC50 in series [2] (read-out: EC50) and in [7] (setting [9]) were under 0.8 µM and 7.8 µM, respectively. Moreover, the “fold change (FC)” value in series [3] was 1.18.

For the origin of these results see ChEMBL document CHEMBL4808187, “Antiarrhythmic Hit to Lead Refinement in a Dish Using Patient-Derived iPSC Cardiomyocytes” (J Med Chem, 2021).
